pIC50: −log10 of the molar value. Where a SMILES comes first, the peptide text is derived from it. Bridges are numbered along the chain shown (N, C = ends). [ ]: non-standard residue; d: D form. hPhe(3-Cl-4-CF3) = N[C@@H](CCc1ccc(C(F)(F)F)c(Cl)c1)C(=O)O; NPrPhe(4-CF3) = CCCN[C@@H](Cc1ccc(C(F)(F)F)cc1)C(=O)O; NMeGly(cPent) = CN[C@H](C(=O)O)C1CCCC1; Pro(4,4-F2) = O=C(O)[C@@H]1CC(F)(F)CN1; Hyp = O=C(O)[C@@H]1C[C@@H](O)CN1; NMeD = CN[C@@H](CC(=O)O)C(=O)O; NMeL = CN[C@@H](CC(C)C)C(=O)O; NMeA = CN[C@@H](C)C(=O)O; Ac5c = NC1(C(=O)O)CCCC1; Aze = O=C(O)[C@@H]1CCN1; Ac4c = NC1(C(=O)O)CCC1; NEtG = CCNCC(=O)O; Sar = CNCC(=O)O
What was measured:
[1] = biological target: GDP-bound NRAS wild-type protein (Homo sapiens, UniProt P01111); assay: Binding to NRAS by surface plasmon resonance (SPR), KD and KD ratio to KRAS; details: ratio of the KD value with respect to GDP-bound NRAS wild-type protein to the KD value with respect to KRAS
Outline: (§1)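 Running buffer contained 10 µM GDP and 10 mM MgCl2 to keep RAS in the GDP state, with 4% DMSO at pH 7.4. Compounds were flowed at 100 µL/min in 75 s steps of rising concentration over captured biotin-Avi RAS at 30°C. Sensorgrams were fitted 1:1 for KD.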

[2] = biological target: HRAS wild-type protein (Homo sapiens, UniProt P01112); assay: Binding to HRAS by surface plasmon resonance (SPR), KD and KD ratio to KRAS; details: ratio of the KD value with respect to HRAS wild-type protein to the KD value with respect to KRAS
Outline: as §1

[3] = tested on: human lung cancer strain NCI-H441; format: cell-based
Outline: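 Step one: dispense the test compound in serial DMSO dilutions. Step three: add the reagent and measure […].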

Sequence of GDP-bound NRAS wild-type protein (P01111 whole entry): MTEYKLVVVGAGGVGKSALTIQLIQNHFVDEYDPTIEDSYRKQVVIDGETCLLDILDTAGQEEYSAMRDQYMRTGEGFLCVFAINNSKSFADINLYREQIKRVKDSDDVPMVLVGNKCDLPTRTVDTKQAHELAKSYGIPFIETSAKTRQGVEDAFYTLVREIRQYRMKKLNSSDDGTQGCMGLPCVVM
Sequence of HRAS wild-type protein (P01112 whole entry): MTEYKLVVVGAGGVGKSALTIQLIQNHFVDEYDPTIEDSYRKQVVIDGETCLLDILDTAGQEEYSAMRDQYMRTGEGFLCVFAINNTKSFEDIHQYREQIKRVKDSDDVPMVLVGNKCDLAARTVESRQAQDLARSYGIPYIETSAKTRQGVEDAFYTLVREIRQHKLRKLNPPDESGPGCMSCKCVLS

| SMILES | NRAS /KRAS [1] | HRAS /KRAS [2] | pIC50 [3] |
| --- | --- | --- | --- |
| CCCN1C(=O)CN(C)C(=O)CN(CC)C(=O)[C@H]([C@@H](C)CC)NC(=O)[C@H](CC(C)C)N(C)C(=O)C[C@@H](C(=O)N(C)C)N(C)C(=O)[C@H](C2CCCC2)N(C)C(=O)C2(CCC2)NC(=O)[C@@H]2C[C@@H](OCC)CN2C(=O)[C@H](CCc2ccc(C(F)(F)F)c(Cl)c2)NC(=O)CN(C)C(=O)[C@@H]1Cc1ccc(C(F)(F)F)cc1 [PP0428] ([NMeL]I[NEtG][Sar][NPrPhe(4-CF3)][Sar][hPhe(3-Cl-4-CF3)][Hyp](Et)[Ac4c][NMeGly(cPent)][NMeD]-NMe2; lactam N-11) | B (a compound having 3 or more and less than 10 is denoted as B) | C (A compound having a KD ratio of 0.1 or more and less than 3 is denoted as C) | 8.34 |
| CCCN1C(=O)CN(C)C(=O)[C@@H]2CCN2C(=O)[C@H]([C@@H](C)CC)NC(=O)[C@H](CC(C)C)N(C)C(=O)C[C@@H](C(=O)N(C)C)N(C)C(=O)[C@H](C2CCCC2)N(C)C(=O)C2(CCC2)NC(=O)[C@@H]2CCCN2C(=O)[C@H](CCc2ccc(C(F)(F)F)c(Cl)c2)NC(=O)CN(C)C(=O)[C@@H]1Cc1ccc(C(F)(F)F)cc1 [PP0430] ([NMeL]I[Aze][Sar][NPrPhe(4-CF3)][Sar][hPhe(3-Cl-4-CF3)]P[Ac4c][NMeGly(cPent)][NMeD]-NMe2; lactam N-11) | B (a compound having 3 or more and less than 10 is denoted as B) | B (a compound having 3 or more and less than 10 is denoted as B) | 7.55 |
| CCCN1C(=O)CN(C)C(=O)[C@@H]2CCN2C(=O)[C@H]([C@@H](C)CC)NC(=O)[C@H](CC(C)C)N(C)C(=O)C[C@@H](C(=O)N(C)C)N(C)C(=O)[C@H](C2CCCC2)N(C)C(=O)C2(CCCC2)NC(=O)[C@@H]2C[C@@H](OCC)CN2C(=O)[C@H](CCc2ccc(C(F)(F)F)c(Cl)c2)NC(=O)CN(C)C(=O)[C@@H]1Cc1ccc(C(F)(F)F)cc1 [PP0433] ([NMeL]I[Aze][Sar][NPrPhe(4-CF3)][Sar][hPhe(3-Cl-4-CF3)][Hyp](Et)[Ac5c][NMeGly(cPent)][NMeD]-NMe2; lactam N-11) | B (a compound having 3 or more and less than 10 is denoted as B) | B (a compound having 3 or more and less than 10 is denoted as B) | 7.96 |
| CCCN1C(=O)[C@@H]2CCN2C(=O)[C@H](C)N(C)C(=O)[C@H]([C@@H](C)CC)NC(=O)[C@H](CC(C)C)N(C)C(=O)C[C@@H](C(=O)N(C)C)N(C)C(=O)[C@H](C2CCCC2)N(C)C(=O)C2(CCC2)NC(=O)[C@@H]2CCCN2C(=O)[C@H](CCc2ccc(C(F)(F)F)c(Cl)c2)NC(=O)CN(C)C(=O)[C@@H]1Cc1ccc(C(F)(F)F)cc1 [PP0435] ([NMeL]I[NMeA][Aze][NPrPhe(4-CF3)][Sar][hPhe(3-Cl-4-CF3)]P[Ac4c][NMeGly(cPent)][NMeD]-NMe2; lactam N-11) | C (A compound having a KD ratio of 0.1 or more and less than 3 is denoted as C) | C (A compound having a KD ratio of 0.1 or more and less than 3 is denoted as C) | 8.59 |
| CCCN1C(=O)[C@@H]2CCN2C(=O)[C@H](C)N(C)C(=O)[C@H]([C@@H](C)CC)NC(=O)[C@H](CC(C)C)N(C)C(=O)C[C@@H](C(=O)N(C)C)N(C)C(=O)[C@H](C2CCCC2)N(C)C(=O)C2(CCCC2)NC(=O)[C@@H]2CC(F)(F)CN2C(=O)[C@H](CCc2ccc(C(F)(F)F)c(Cl)c2)NC(=O)CN(C)C(=O)[C@@H]1Cc1ccc(C(F)(F)F)cc1 [PP0436] ([NMeL]I[NMeA][Aze][NPrPhe(4-CF3)][Sar][hPhe(3-Cl-4-CF3)][Pro(4,4-F2)][Ac5c][NMeGly(cPent)][NMeD]-NMe2; lactam N-11) | C (A compound having a KD ratio of 0.1 or more and less than 3 is denoted as C) | C (A compound having a KD ratio of 0.1 or more and less than 3 is denoted as C) | 9.00 |
| CCCN1C(=O)[C@@H]2CCN2C(=O)[C@H](C)N(C)C(=O)[C@H]([C@@H](C)CC)NC(=O)[C@H](CC(C)C)N(C)C(=O)C[C@@H](C(=O)N(C)C)N(C)C(=O)[C@H](C2CCCC2)N(C)C(=O)C2(CCC2)NC(=O)[C@@H]2CC(F)(F)CN2C(=O)[C@H](CCc2ccc(C(F)(F)F)c(Cl)c2)NC(=O)CN(C)C(=O)[C@@H]1Cc1ccc(C(F)(F)F)cc1 [PP0437] ([NMeL]I[NMeA][Aze][NPrPhe(4-CF3)][Sar][hPhe(3-Cl-4-CF3)][Pro(4,4-F2)][Ac4c][NMeGly(cPent)][NMeD]-NMe2; lactam N-11) | C (A compound having a KD ratio of 0.1 or more and less than 3 is denoted as C) | B (a compound having 3 or more and less than 10 is denoted as B) | 8.92 |
| CCCN1C(=O)[C@@H]2CCN2C(=O)[C@H](C)N(C)C(=O)[C@H]([C@@H](C)CC)NC(=O)[C@H](CC(C)C)N(C)C(=O)C[C@@H](C(=O)N(C)C)N(C)C(=O)[C@H](C2CCCC2)N(C)C(=O)C2(CCCC2)NC(=O)[C@@H]2C[C@@H](OCC)CN2C(=O)[C@H](CCc2ccc(C(F)(F)F)c(Cl)c2)NC(=O)CN(C)C(=O)[C@@H]1Cc1ccc(C(F)(F)F)cc1 [PP0438] ([NMeL]I[NMeA][Aze][NPrPhe(4-CF3)][Sar][hPhe(3-Cl-4-CF3)][Hyp](Et)[Ac5c][NMeGly(cPent)][NMeD]-NMe2; lactam N-11) | C (A compound having a KD ratio of 0.1 or more and less than 3 is denoted as C) | C (A compound having a KD ratio of 0.1 or more and less than 3 is denoted as C) | 9.00 |
| CCCN1C(=O)[C@@H]2CCN2C(=O)CN(C)C(=O)[C@H]([C@@H](C)CC)NC(=O)[C@H](CC(C)C)N(C)C(=O)C[C@@H](C(=O)N(C)C)N(C)C(=O)[C@H](C2CCCC2)N(C)C(=O)C2(CCCC2)NC(=O)[C@@H]2CCCN2C(=O)[C@H](CCc2ccc(C(F)(F)F)c(Cl)c2)NC(=O)CN(C)C(=O)[C@@H]1Cc1ccc(C(F)(F)F)cc1 [PP0440] ([NMeL]I[Sar][Aze][NPrPhe(4-CF3)][Sar][hPhe(3-Cl-4-CF3)]P[Ac5c][NMeGly(cPent)][NMeD]-NMe2; lactam N-11) | C (A compound having a KD ratio of 0.1 or more and less than 3 is denoted as C) | B (a compound having 3 or more and less than 10 is denoted as B) | 8.36 |
| CCCN1C(=O)[C@@H]2CCN2C(=O)CN(C)C(=O)[C@H]([C@@H](C)CC)NC(=O)[C@H](CC(C)C)N(C)C(=O)C[C@@H](C(=O)N(C)C)N(C)C(=O)[C@H](C2CCCC2)N(C)C(=O)C2(CCC2)NC(=O)[C@@H]2CCCN2C(=O)[C@H](CCc2ccc(C(F)(F)F)c(Cl)c2)NC(=O)CN(C)C(=O)[C@@H]1Cc1ccc(C(F)(F)F)cc1 [PP0441] ([NMeL]I[Sar][Aze][NPrPhe(4-CF3)][Sar][hPhe(3-Cl-4-CF3)]P[Ac4c][NMeGly(cPent)][NMeD]-NMe2; lactam N-11) | C (A compound having a KD ratio of 0.1 or more and less than 3 is denoted as C) | C (A compound having a KD ratio of 0.1 or more and less than 3 is denoted as C) | 8.47 |
| CCCN1C(=O)[C@@H]2CCN2C(=O)CN(C)C(=O)[C@H]([C@@H](C)CC)NC(=O)[C@H](CC(C)C)N(C)C(=O)C[C@@H](C(=O)N(C)C)N(C)C(=O)[C@H](C2CCCC2)N(C)C(=O)C2(CCCC2)NC(=O)[C@@H]2CC(F)(F)CN2C(=O)[C@H](CCc2ccc(C(F)(F)F)c(Cl)c2)NC(=O)CN(C)C(=O)[C@@H]1Cc1ccc(C(F)(F)F)cc1 [PP0442] ([NMeL]I[Sar][Aze][NPrPhe(4-CF3)][Sar][hPhe(3-Cl-4-CF3)][Pro(4,4-F2)][Ac5c][NMeGly(cPent)][NMeD]-NMe2; lactam N-11) | C (A compound having a KD ratio of 0.1 or more and less than 3 is denoted as C) | C (A compound having a KD ratio of 0.1 or more and less than 3 is denoted as C) | 9.10 |
| CCCN1C(=O)[C@@H]2CCN2C(=O)CN(C)C(=O)[C@H]([C@@H](C)CC)NC(=O)[C@H](CC(C)C)N(C)C(=O)C[C@@H](C(=O)N(C)C)N(C)C(=O)[C@H](C2CCCC2)N(C)C(=O)C2(CCC2)NC(=O)[C@@H]2CC(F)(F)CN2C(=O)[C@H](CCc2ccc(C(F)(F)F)c(Cl)c2)NC(=O)CN(C)C(=O)[C@@H]1Cc1ccc(C(F)(F)F)cc1 [PP0443] ([NMeL]I[Sar][Aze][NPrPhe(4-CF3)][Sar][hPhe(3-Cl-4-CF3)][Pro(4,4-F2)][Ac4c][NMeGly(cPent)][NMeD]-NMe2; lactam N-11) | C (A compound having a KD ratio of 0.1 or more and less than 3 is denoted as C) | C (A compound having a KD ratio of 0.1 or more and less than 3 is denoted as C) | 9.05 |
| CCCN1C(=O)[C@@H]2CCN2C(=O)CN(C)C(=O)[C@H]([C@@H](C)CC)NC(=O)[C@H](CC(C)C)N(C)C(=O)C[C@@H](C(=O)N(C)C)N(C)C(=O)[C@H](C2CCCC2)N(C)C(=O)C2(CCCC2)NC(=O)[C@@H]2C[C@@H](OCC)CN2C(=O)[C@H](CCc2ccc(C(F)(F)F)c(Cl)c2)NC(=O)CN(C)C(=O)[C@@H]1Cc1ccc(C(F)(F)F)cc1 [PP0444] ([NMeL]I[Sar][Aze][NPrPhe(4-CF3)][Sar][hPhe(3-Cl-4-CF3)][Hyp](Et)[Ac5c][NMeGly(cPent)][NMeD]-NMe2; lactam N-11) | C (A compound having a KD ratio of 0.1 or more and less than 3 is denoted as C) | C (A compound having a KD ratio of 0.1 or more and less than 3 is denoted as C) | 8.85 |
